Consider eight compounds from PubChem BioAssay (NCI).

Among the test systems are SK-MEL-2 melanoma; KM12 colon; HOP-62 NSCLC; ACHN renal; SNB-19 CNS; NCI-H522 lung; SK-MEL-28 melanoma; HS 578T breast; UO-31 renal; 786-0 renal.
Common to all, as to assay: growth of human tumour cells (NCI), 48 h

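Growth conditions: 96-well plates. Treatment: test compound, 48 hours, 5 concentrations. Analysis: linear interpolation between bracketing concentrations; unreached endpoints set to highest concentration. GI50 marks 50% less growth. Definition used: TGI = concentration required for complete inhibition of growth.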

As for `CCOc1ccc(S(=O)(=O)/N=C2\C=C(SCC(=O)O)C(=O)c3ccccc32)cc1`, the GI50 is 2.62 µM in the test on SK-MEL-2 melanoma; 2.8 µM in the test with KM12 colon; 20.7 µM in the test with HOP-62 NSCLC; 6.8 µM in the test on ACHN renal; 3.42 µM with SNB-19 CNS; 2.53 µM with NCI-H522 lung. Besides, the GI50 in the test on SK-MEL-28 melanoma was 4.74 µM; with HS 578T breast it was 2.6 µM; in the test on UO-31 renal it was 4.13 µM; in the test with 786-0 renal, 17.4 µM. The TGI with SK-MEL-2 melanoma stood at 5.8 µM; in the test on KM12 colon, 10.3 µM; in the test on HOP-62 NSCLC, 44.8 µM; in the test with ACHN renal, 20.2 µM; in the test on SNB-19 CNS, 12.1 µM; in the test with NCI-H522 lung, 6.63 µM. Besides, the TGI in the test with SK-MEL-28 melanoma amounted to 16.3 µM; in the test with HS 578T breast it was 6.79 µM; with UO-31 renal, 15.8 µM; in the test with 786-0 renal it was 36 µM.
For the compound `C#Cc1cnc(=O)n(C2CC(O)C(CO)O2)c1` (centres undefined), the GI50 in the test with SK-MEL-2 melanoma, with KM12 colon, in the test with HOP-62 NSCLC, in the test with ACHN renal, in the test with NCI-H522 lung and with SK-MEL-28 melanoma was more than 100 µM in each case. For the same compound, the GI50 with HS 578T breast, with UO-31 renal and with 786-0 renal was more than 100 µM throughout. For the same compound, the TGI in the test with SK-MEL-2 melanoma is more than 100 µM; in the test with KM12 colon, more than 100 µM; in the test with HOP-62 NSCLC, more than 100 µM; in the test on ACHN renal it was more than 100 µM; in the test with SNB-19 CNS, more than 23 µM; with NCI-H522 lung it was more than 100 µM. In addition, the TGI with SK-MEL-28 melanoma, in the test with HS 578T breast, in the test on UO-31 renal and in the test on 786-0 renal was more than 100 µM throughout.
`COc1cc(/C=C\[N+](=O)[O-])ccc1O`: the GI50 in the test with SK-MEL-2 melanoma was 2.8 µM; with KM12 colon, 4.93 µM; in the test on HOP-62 NSCLC it was 3.21 µM; in the test with ACHN renal, 2.36 µM; with SNB-19 CNS, 4.92 µM; in the test on NCI-H522 lung, 1.3 µM. For the same compound, the GI50 is 1.95 µM in the test on SK-MEL-28 melanoma, 4.71 µM in the test on HS 578T breast, 1.48 µM in the test with UO-31 renal and 1.81 µM in the test on 786-0 renal. Also, the TGI in the test on SK-MEL-2 melanoma was determined as 10.4 µM; in the test on KM12 colon, 17.3 µM; in the test with HOP-62 NSCLC, 13.8 µM; in the test with ACHN renal, 6.01 µM; in the test with SNB-19 CNS it was 18 µM; in the test with NCI-H522 lung it was 3.02 µM. Also, the TGI in the test with SK-MEL-28 melanoma is 4.59 µM; in the test with HS 578T breast, 28.8 µM; in the test on UO-31 renal, 3.25 µM; in the test on 786-0 renal it was 3.94 µM.
On to `CC(C)(C)c1cc(O)c(O)c(C(C)(C)C)c1`, for which the GI50 was 3.74 µM in the test on SK-MEL-2 melanoma; 5.57 µM in the test on KM12 colon; 8.96 µM with HOP-62 NSCLC; 2.15 µM with ACHN renal; 7.3 µM in the test on SNB-19 CNS; 1.77 µM in the test with NCI-H522 lung. For the same compound, the GI50 in the test on SK-MEL-28 melanoma was 3 µM; in the test on HS 578T breast, 3.9 µM; with UO-31 renal, 2.15 µM; in the test on 786-0 renal, 4.6 µM. Besides, the TGI with SK-MEL-2 melanoma stood at 11.4 µM; in the test with KM12 colon, 16.9 µM; with HOP-62 NSCLC it was 29 µM; in the test with ACHN renal, 4.13 µM; with SNB-19 CNS it was 20.3 µM; with NCI-H522 lung, 3.29 µM. For the same compound, the TGI amounted to 10.7 µM with SK-MEL-28 melanoma, 26.7 µM in the test on HS 578T breast, 4.98 µM with UO-31 renal and 16.2 µM in the test with 786-0 renal.
As for `CC(CO)(CO)N=Cc1cc(I)cc(I)c1O`, the TGI is 27.4 µM in the test on SK-MEL-2 melanoma; 28.2 µM in the test with KM12 colon; 25 µM in the test with HOP-62 NSCLC; 69.9 µM with ACHN renal; 48.9 µM with SNB-19 CNS; 49.4 µM with NCI-H522 lung. The TGI in the test on SK-MEL-28 melanoma was found to be 38.7 µM; in the test with HS 578T breast, 74 µM; in the test with UO-31 renal, 34.6 µM; in the test with 786-0 renal it was 30.9 µM.
Regarding `COc1cc(-n2cc(-c3ccc(Cl)c(Cl)c3)nc2SCc2ccccc2)cc(OC)c1OC`, the GI50 in the test on SK-MEL-2 melanoma was more than 100 µM; in the test on KM12 colon, more than 100 µM; in the test on HOP-62 NSCLC it was more than 100 µM; in the test with ACHN renal it was more than 100 µM; in the test on SNB-19 CNS, more than 100 µM; in the test on NCI-H522 lung, 44.8 µM. Further, the GI50 in the test with SK-MEL-28 melanoma, in the test on HS 578T breast, in the test with UO-31 renal and in the test with 786-0 renal was more than 100 µM throughout. Moreover, the TGI with SK-MEL-2 melanoma, in the test with KM12 colon, in the test with HOP-62 NSCLC, in the test on ACHN renal, in the test on SNB-19 CNS and in the test on NCI-H522 lung was more than 100 µM throughout. Besides, the TGI in the test with SK-MEL-28 melanoma, in the test on HS 578T breast, in the test with UO-31 renal and in the test on 786-0 renal was more than 100 µM each time.
As for `COc1ccc(C(=O)Nc2ncc(Cc3ccc(Cl)cc3)s2)cc1`, the GI50 with SK-MEL-2 melanoma was 0.532 µM; in the test on KM12 colon, 0.0373 µM; in the test on HOP-62 NSCLC, 0.0984 µM; with ACHN renal, 0.0603 µM; with SNB-19 CNS, 0.0897 µM; with NCI-H522 lung, 0.0573 µM. The GI50 with SK-MEL-28 melanoma was 2.12 µM; with HS 578T breast, 0.0407 µM; with UO-31 renal, 0.91 µM; in the test with 786-0 renal, 0.0779 µM. For the same compound, the TGI in the test with SK-MEL-2 melanoma was more than 100 µM; in the test with KM12 colon it was more than 37.1 µM; in the test with HOP-62 NSCLC, more than 83.4 µM; in the test on ACHN renal, more than 100 µM; with SNB-19 CNS, more than 100 µM; in the test on NCI-H522 lung, more than 37.8 µM. Also, the TGI in the test on SK-MEL-28 melanoma is more than 100 µM; in the test with HS 578T breast, more than 77 µM; in the test with UO-31 renal, more than 100 µM; with 786-0 renal, more than 100 µM.
Turning to `COc1ccc(/C=C/C=C(/C#N)C(N)=S)cc1`, the GI50 is 25.2 µM in the test on SK-MEL-2 melanoma; 21.3 µM with KM12 colon; 29.8 µM with HOP-62 NSCLC; 24.6 µM in the test on ACHN renal; 26.2 µM in the test with SNB-19 CNS; 26.1 µM in the test with NCI-H522 lung. The GI50 in the test with SK-MEL-28 melanoma was 23.8 µM; with HS 578T breast, 62.5 µM; in the test on UO-31 renal it was 21.6 µM; in the test with 786-0 renal, 33.3 µM. Further, the TGI is 67.7 µM in the test on SK-MEL-2 melanoma; 89.4 µM in the test with KM12 colon; 94.9 µM in the test on HOP-62 NSCLC; 49.9 µM with ACHN renal; more than 100 µM with SNB-19 CNS; 58.3 µM with NCI-H522 lung. Besides, the TGI was 65.7 µM in the test on SK-MEL-28 melanoma, more than 100 µM with HS 578T breast, 45.2 µM in the test on UO-31 renal and more than 100 µM in the test with 786-0 renal.
